Here are results for 1 molecule from paper PMC9432691, “Characterisation of a soil MINPP phytase with remarkable long-term stability and activity from Acinetobacter sp” (PLoS ONE, 2022).

For this experiment, the target named is T1, AtITPK1 (inositol tris/tetrakisphosphate kinase 1) (Arabidopsis thaliana, UniProt Q9SBA5).
T1 construct: gene ITPK1
T1 sequence (Q9SBA5 2-319): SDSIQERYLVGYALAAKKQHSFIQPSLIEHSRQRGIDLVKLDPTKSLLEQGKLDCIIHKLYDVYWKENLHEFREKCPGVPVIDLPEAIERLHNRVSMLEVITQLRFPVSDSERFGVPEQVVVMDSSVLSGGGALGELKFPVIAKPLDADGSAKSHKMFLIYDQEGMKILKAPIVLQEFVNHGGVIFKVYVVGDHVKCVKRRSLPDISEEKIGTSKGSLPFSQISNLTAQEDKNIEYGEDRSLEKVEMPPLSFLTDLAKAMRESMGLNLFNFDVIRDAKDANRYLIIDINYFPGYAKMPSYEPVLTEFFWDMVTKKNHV
Put plainly: pyrophosphorylation assay with […] substrate, HPLC; […] conversion. In kind it is biochemical.

Turning to `O=P(O)(O)O[C@H]1[C@H](OP(=O)(O)O)[C@@H](OP(=O)(O)O)[C@H](OP(=O)(O)O)[C@@H](OP(=O)(O)O)[C@H]1OP(=O)(O)O` [InsP6, myo-inositol 1,2,3,4,5,6-hexakisphosphate], the “% conversion” value came out at 90 % conversion.
